These results are taken from patent publication US20240024488A1, “COMPOUNDS AND USES THEREOF” (Foghorn Therapeutics Inc., priority 2020, published 2024).

The target in experiment [1] is T1, HiBit-BRG1 fusion protein (Homo sapiens, UniProt P51532).
T1 construct: expressed in transfected cells
The experiment in a line: HiBiT-BRG1 cell-based degradation assay (Nano-Glo HiBiT Lytic Detection, 24 h). To be noted: HeLa cell line expressing HiBit-BRG1 and LgBit; for Dmax: read-out: BRG1 HiBit Degradation Maximum (%); for DC50: read-out: BRMG1 HiBit Degradation IC50. On the procedure: Procedure: A stable HeLa cell line expressing HiBiT-BRM was generated. On day 0, 5000 cells were seeded in 40 μL of media into each well of 384-well cell culture plates. […] Subsequently plates were incubated for 24 h in a standard tissue culture incubator and equilibrated at room temperature for 15 minutes. Nano-Glo HiBiT Lytic Detection System (Promega N3050) reagent was freshly prepared and 20 ul was added to each well. Upon addition of this LgBit-containing reagent, the HiBiT and LgBiT proteins associate to form the luminescent NanoBiT luciferase. The plates were shaken for 10 minutes at room temperature and the bioluminescence read using an EnVision plate reader (PerkinElmer).
For measurement of BRG1 degradation, a stable HeLa cell line expressing HiBit-BRG1 and LgBit was generated. The same protocol as above was then followed.
(§1) The degradation % was calculated using the following formula: % degradation=100%−100%×(LumSample−LumLC)/(LumHC−LumLC). DMSO treated cells are employed as High Control (HC) and 2 μM of a known BRM/BRG1 degrader standard treated cells are employed as Low Control (LC).
(In general: HiBiT is a short tag that completes a luciferase, so light tracks the accessible tagged protein.)

A further experiment deals with T2, HiBit-BRM fusion protein (Homo sapiens, UniProt P51531).
T2 construct: expressed in transfected cells
T2 sequence (P51531 whole entry, the tested form may be a part): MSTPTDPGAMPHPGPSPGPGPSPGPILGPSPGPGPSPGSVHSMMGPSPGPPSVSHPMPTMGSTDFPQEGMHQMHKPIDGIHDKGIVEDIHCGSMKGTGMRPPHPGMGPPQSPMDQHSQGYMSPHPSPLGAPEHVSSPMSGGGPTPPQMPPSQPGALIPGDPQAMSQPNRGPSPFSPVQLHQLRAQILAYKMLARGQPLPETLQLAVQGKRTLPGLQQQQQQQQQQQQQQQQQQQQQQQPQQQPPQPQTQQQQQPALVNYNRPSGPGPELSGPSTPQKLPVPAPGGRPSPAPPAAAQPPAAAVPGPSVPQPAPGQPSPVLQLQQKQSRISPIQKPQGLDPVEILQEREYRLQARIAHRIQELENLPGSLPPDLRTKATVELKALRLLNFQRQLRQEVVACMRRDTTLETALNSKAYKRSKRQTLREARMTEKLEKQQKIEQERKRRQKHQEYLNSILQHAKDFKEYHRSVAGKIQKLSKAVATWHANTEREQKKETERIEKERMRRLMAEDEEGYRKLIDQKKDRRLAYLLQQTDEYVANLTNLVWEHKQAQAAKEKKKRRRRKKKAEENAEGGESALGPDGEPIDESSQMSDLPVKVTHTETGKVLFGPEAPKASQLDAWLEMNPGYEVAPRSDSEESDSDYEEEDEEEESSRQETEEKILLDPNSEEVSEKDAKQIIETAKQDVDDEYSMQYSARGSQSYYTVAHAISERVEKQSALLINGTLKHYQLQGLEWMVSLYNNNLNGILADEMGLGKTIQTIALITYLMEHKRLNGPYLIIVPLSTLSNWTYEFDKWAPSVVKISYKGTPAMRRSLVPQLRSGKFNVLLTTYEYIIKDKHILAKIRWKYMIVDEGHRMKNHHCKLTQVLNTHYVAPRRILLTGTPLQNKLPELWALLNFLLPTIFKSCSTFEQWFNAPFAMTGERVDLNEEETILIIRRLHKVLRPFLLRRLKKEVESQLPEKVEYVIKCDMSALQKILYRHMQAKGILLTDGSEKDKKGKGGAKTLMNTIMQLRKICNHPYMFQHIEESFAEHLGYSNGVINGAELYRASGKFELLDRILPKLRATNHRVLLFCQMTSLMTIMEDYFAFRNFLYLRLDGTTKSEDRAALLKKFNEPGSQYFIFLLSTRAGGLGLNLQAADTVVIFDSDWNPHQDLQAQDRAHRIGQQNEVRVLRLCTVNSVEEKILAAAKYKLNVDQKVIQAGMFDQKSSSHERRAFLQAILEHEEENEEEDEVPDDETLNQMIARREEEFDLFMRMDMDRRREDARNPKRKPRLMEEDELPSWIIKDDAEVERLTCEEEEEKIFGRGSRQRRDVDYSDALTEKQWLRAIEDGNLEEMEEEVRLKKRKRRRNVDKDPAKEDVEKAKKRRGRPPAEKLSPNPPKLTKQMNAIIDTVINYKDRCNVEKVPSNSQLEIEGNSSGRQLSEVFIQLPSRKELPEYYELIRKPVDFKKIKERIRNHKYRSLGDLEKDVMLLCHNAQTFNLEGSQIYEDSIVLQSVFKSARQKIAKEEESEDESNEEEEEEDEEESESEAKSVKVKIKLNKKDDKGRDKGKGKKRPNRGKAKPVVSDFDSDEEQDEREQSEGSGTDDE
The experiment is described as follows: HiBiT-BRM cell-based degradation assay (Nano-Glo HiBiT Lytic Detection, 24 h). To be noted: HeLa cell line expressing HiBiT-BRM; for DC50: read-out: BRM HiBit Degradation IC50. The protocol: Procedure: A stable HeLa cell line expressing HiBiT-BRM was generated. On day 0, 5000 cells were seeded in 40 μL of media into each well of 384-well cell culture plates. On day 1, cells were treated with 120 nL DMSO or 120 nL of 3-fold serially DMSO-diluted compounds (10 points in duplicate with 30 μM as final top dose). Subsequently plates were incubated for 24 h in a standard tissue culture incubator and equilibrated at room temperature for 15 minutes. Nano-Glo HiBiT Lytic Detection System (Promega N3050) reagent was freshly prepared and 20 ul was added to each well. Upon addition of this LgBit-containing reagent, the HiBiT and LgBiT proteins associate to form the luminescent NanoBiT luciferase. The plates were shaken for 10 minutes at room temperature and the bioluminescence read using an EnVision plate reader (PerkinElmer).
as §1

Counter-ions that a name gives are not always drawn.

T1 sequence (P51532 whole entry, the tested form may be a part): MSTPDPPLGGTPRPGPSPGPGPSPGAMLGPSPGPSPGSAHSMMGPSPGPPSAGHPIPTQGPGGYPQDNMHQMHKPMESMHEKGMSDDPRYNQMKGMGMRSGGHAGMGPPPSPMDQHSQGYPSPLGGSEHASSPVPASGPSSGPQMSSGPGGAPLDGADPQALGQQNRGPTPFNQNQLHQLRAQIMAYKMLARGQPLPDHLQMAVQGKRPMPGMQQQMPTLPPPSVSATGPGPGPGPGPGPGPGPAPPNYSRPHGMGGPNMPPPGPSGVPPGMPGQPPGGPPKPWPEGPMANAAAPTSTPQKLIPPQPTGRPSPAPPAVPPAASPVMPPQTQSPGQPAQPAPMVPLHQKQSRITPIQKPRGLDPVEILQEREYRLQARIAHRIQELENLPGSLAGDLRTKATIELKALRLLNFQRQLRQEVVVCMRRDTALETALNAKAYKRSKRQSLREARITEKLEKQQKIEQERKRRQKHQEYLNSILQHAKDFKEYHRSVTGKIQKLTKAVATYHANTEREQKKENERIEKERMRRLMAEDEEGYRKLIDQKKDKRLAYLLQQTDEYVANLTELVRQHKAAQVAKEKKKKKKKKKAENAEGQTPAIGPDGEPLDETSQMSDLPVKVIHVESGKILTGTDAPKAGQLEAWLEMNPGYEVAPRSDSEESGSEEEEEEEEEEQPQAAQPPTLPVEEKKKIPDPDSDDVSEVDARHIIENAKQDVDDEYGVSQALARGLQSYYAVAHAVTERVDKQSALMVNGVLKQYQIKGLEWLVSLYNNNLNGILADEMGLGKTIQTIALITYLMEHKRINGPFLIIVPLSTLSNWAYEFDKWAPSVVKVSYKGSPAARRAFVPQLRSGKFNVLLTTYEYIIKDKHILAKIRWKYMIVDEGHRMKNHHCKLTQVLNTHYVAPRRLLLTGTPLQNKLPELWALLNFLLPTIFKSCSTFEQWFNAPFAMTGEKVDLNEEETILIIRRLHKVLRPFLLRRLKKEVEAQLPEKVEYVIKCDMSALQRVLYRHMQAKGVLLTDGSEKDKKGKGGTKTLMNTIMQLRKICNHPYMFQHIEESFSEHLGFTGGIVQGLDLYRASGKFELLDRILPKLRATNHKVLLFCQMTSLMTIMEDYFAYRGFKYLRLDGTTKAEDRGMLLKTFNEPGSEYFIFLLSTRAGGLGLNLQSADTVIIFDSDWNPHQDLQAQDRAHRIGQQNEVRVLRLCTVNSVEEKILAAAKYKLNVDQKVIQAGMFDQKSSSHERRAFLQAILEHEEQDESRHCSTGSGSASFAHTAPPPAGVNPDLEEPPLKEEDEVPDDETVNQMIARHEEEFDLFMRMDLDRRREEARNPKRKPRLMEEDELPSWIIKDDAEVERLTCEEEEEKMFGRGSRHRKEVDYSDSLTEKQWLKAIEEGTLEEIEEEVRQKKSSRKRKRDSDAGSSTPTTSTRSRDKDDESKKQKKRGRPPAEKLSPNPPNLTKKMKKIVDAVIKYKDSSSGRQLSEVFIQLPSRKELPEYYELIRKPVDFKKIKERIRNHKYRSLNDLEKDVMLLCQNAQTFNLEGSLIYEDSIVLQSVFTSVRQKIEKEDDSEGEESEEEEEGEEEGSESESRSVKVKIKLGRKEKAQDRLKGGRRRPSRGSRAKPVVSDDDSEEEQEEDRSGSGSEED

With `Cc1ncsc1-c1ccc([C@H](C)NC(=O)[C@@H]2C[C@@H](O)CN2C(=O)[C@@H](c2cc(N3CCC(N(C)[C@H]4CCc5[nH]c6nnc(-c7ccccc7O)cc6c5C4)CC3)no2)C(C)C)cc1` (racemic) [Compound 111, (2S,4R)-4-hydroxy-1-((R)-2-(3-(4-(((S)-3-(2-hydroxyphenyl)-6,7,8,9-tetrahydro-5H-pyridazino[3,4-b]indol-6-yl)(methyl)amino)piperidin-1-yl)isoxazol-5-yl)-3-methylbutanoyl)-N-((S)-1-(4-(4-methylthiazol-5-yl)phenyl)ethyl)pyrrolidine-2-carboxamide], in experiment [1], the Dmax was over 50% and the DC50 was over 100 nM. Moreover, on HiBit-BRM fusion protein, the “BRM HiBit Degradation Maximum (%)” value is reported as “A (“A” indicates maximum degradation ≥ 75%)” and the DC50 is over 10 nM.
In the case of `Cc1ncsc1-c1ccc([C@H](C)NC(=O)[C@@H]2C[C@@H](O)CN2C(=O)[C@@H](c2cc(N3CCN(C(=O)c4cc5cc(-c6ccccc6O)nnc5[nH]4)CC3)no2)C(C)C)cc1` (racemic) [Compound 253, (2S,4R)-4-hydroxy-1-((R)-2-(3-(4-(3-(2-hydroxyphenyl)-7H-pyrrolo[2,3-c]pyridazine-6-carbonyl)piperazin-1-yl)isoxazol-5-yl)-3-methylbutanoyl)-N-((S)-1-(4-(4-methylthiazol-5-yl)phenyl)ethyl)pyrrolidine-2-carboxamide], in experiment [1], the Dmax is over 75% and the DC50 is over 100 nM. Besides, at HiBit-BRM fusion protein, the “BRM HiBit Degradation Maximum (%)” value was “A (“A” indicates maximum degradation ≥ 75%)” and the DC50 was over 100 nM.
Regarding `Cc1ncsc1-c1ccc([C@H](C)NC(=O)[C@@H]2C[C@@H](O)CN2C(=O)C(c2cc(OCC(=O)N[C@]3(C(=O)O)CCc4[nH]c5nnc(-c6ccccc6O)cc5c4C3)no2)C(C)C)cc1` (single isomer, unassigned) [Compound 89], the Dmax in experiment [1] was under 50%. In addition, the “BRM HiBit Degradation Maximum (%)” value on HiBit-BRM fusion protein is recorded as “C (“C” indicates maximum degradation < 50%)”.
Taken in the same sequence, the figures for `Cc1ncsc1-c1ccc([C@H](C)NC(=O)[C@@H]2C[C@@H](O)CN2C(=O)[C@H](c2cc(CCCN3CC(c4cc5cc(-c6ccccc6O)nnc5[nH]4)C3)no2)C(C)C)cc1` (single isomer, unassigned) [Compound 202] were under 50% and “C (“C” indicates maximum degradation < 50%)”.
The matching figures for `Cc1ncsc1-c1ccc([C@H](C)NC(=O)[C@@H]2C[C@@H](O)CN2C(=O)[C@@H](c2cc(N(C)CCN3CCc4[nH]c5nnc(-c6ccccc6O)cc5c4C3)no2)C(C)C)cc1` (racemic) [Compound 182, (2S,4R)-4-hydroxy-1-((R)-2-(3-((2-(3-(2-hydroxyphenyl)-5,7,8,9-tetrahydro-6H-pyrido[3′,4′:4,5]pyrrolo[2,3-c]pyridazin-6-yl)ethyl)(methyl)amino)isoxazol-5-yl)-3-methylbutanoyl)-N-((S)-1-(4-(4-methylthiazol-5-yl)phenyl)ethyl)pyrrolidine-2-carboxamide]: under 50% and “C (“C” indicates maximum degradation < 50%)”.
With `Cc1ncsc1-c1ccc([C@H](C)NC(=O)[C@@H]2C[C@@H](O)CN2C(=O)C(c2cc(N3CCC(C(=O)N4CC(c5c[nH]c6nnc(-c7ccccc7O)cc56)C4)CC3)no2)C(C)C)cc1` (mixture of isomers) [Compound 231, (2S,4R)-4-hydroxy-1-((S)-2-(3-(4-(3-(3-(2-hydroxyphenyl)-7H-pyrrolo[2,3-c]pyridazin-5-yl)azetidine-1-carbonyl)piperidin-1-yl)isoxazol-5-yl)-3-methylbutanoyl)-N-((S)-1-(4-(4-methylthiazol-5-yl)phenyl)ethyl)pyrrolidine-2-carboxamide], the Dmax in experiment [1] is under 50%. On HiBit-BRM fusion protein, the “BRM HiBit Degradation Maximum (%)” value is “A (“A” indicates maximum degradation ≥ 75%)” and the DC50 was over 100 nM.
The matching figures for `Cc1ncsc1-c1ccc([C@H](C)NC(=O)[C@@H]2C[C@@H](O)CN2C(=O)[C@@H](c2cc(OCCCN3CC(c4[nH]c5nnc(-c6ccccc6O)cc5c4C)C3)no2)C(C)C)cc1` (racemic) [Compound 229, (2S,4R)-4-hydroxy-1-((R)-2-(3-(3-(3-(3-(2-hydroxyphenyl)-5-methyl-7H-pyrrolo[2,3-c]pyridazin-6-yl)azetidin-1-yl)propoxy)isoxazol-5-yl)-3-methylbutanoyl)-N-((S)-1-(4-(4-methylthiazol-5-yl)phenyl)ethyl)pyrrolidine-2-carboxamide]: under 50%, “A (“A” indicates maximum degradation ≥ 75%)” and over 1000 nM.
Taken in the same sequence, the figures for `Cc1ncsc1-c1ccc([C@H](C)NC(=O)[C@@H]2C[C@@H](O)CN2C(=O)[C@@H](c2cc(OCCN(C)CCC(=O)N3CC(c4cc5cc(-c6ccccc6O)nnc5[nH]4)C3)no2)C(C)C)cc1` (racemic) [Compound 64, (2S,4R)-4-hydroxy-1-((R)-2-(3-(2-((3-(3-(3-(2-hydroxyphenyl)-7H-pyrrolo[2,3-c]pyridazin-6-yl)azetidin-1-yl)-3-oxopropyl)(methyl)amino)ethoxy)isoxazol-5-yl)-3-methylbutanoyl)-N-((S)-1-(4-(4-methylthiazol-5-yl)phenyl)ethyl)pyrrolidine-2-carboxamide] were under 50%, “B (“B” indicates maximum degradation ≥ 50%)” and over 100 nM.
With `Cc1ncsc1-c1ccc([C@H](C)NC(=O)[C@@H]2C[C@@H](O)CN2C(=O)[C@@H](c2cc(N3CCN(CCN4CC(c5cc6cc(-c7ccccc7O)nnc6[nH]5)C4)CC3)no2)C(C)C)cc1` (racemic) [Compound 273, (2S,4R)-4-hydroxy-1-[(2R)-2-{3-[4-(2-{3-[3-(2-hydroxyphenyl)-7H-pyrrolo[2,3-c]pyridazin-6-yl]azetidin-1-yl}ethyl)piperazin-1-yl]-1,2-oxazol-5-yl}-3-methylbutanoyl]-N-[(1S)-1-[4-(4-methyl-1,3-thiazol-5-yl)phenyl]ethyl]pyrrolidine-2-carboxamide], at HiBit-BRM fusion protein, the “BRM HiBit Degradation Maximum (%)” value is given as “A (“A” indicates maximum degradation ≥ 75%)” and the DC50 was over 100 nM.
For the molecule `Cc1ncsc1-c1ccc([C@H](C)NC(=O)[C@@H]2C[C@@H](O)CN2C(=O)[C@@H](c2cc(C3CCN(C(=O)N4CCc5[nH]c6nnc(-c7ccccc7O)cc6c5C4)CC3)no2)C(C)C)cc1` [Compound 105, (2S,4R)-4-hydroxy-1-((R)-2-(3-(1-(3-(2-hydroxyphenyl)-6,7,8,9-tetrahydro-5H-pyrido[3′,4′:4,5]pyrrolo[2,3-c]pyridazine-6-carbonyl)piperidin-4-yl)isoxazol-5-yl)-3-methylbutanoyl)-N—((S)-1-(4-(4-methylthiazol-5-yl)phenyl)ethyl)pyrrolidine-2-carboxamide], at HiBit-BRM fusion protein, the “BRM HiBit Degradation Maximum (%)” value is “A (“A” indicates maximum degradation ≥ 75%)” and the DC50 is over 10 nM.
Take `Cc1ncsc1-c1ccc([C@H](C)NC(=O)[C@@H]2C[C@@H](O)CN2C(=O)[C@H](c2cc(OCCN3CC(c4cc5cc(-c6ccccc6O)nnc5[nH]4)C3)no2)C(C)C)cc1` (racemic) [Compound 62, (2S,4R)-4-hydroxy-1-((S)-2-(3-(2-(3-(3-(2-hydroxyphenyl)-7H-pyrrolo[2,3-c]pyridazin-6-yl)azetidin-1-yl)ethoxy)isoxazol-5-yl)-3-methylbutanoyl)-N-((S)-1-(4-(4-methylthiazol-5-yl)phenyl)ethyl)pyrrolidine-2-carboxamide]: the “BRM HiBit Degradation Maximum (%)” value at HiBit-BRM fusion protein is listed as “C (“C” indicates maximum degradation < 50%)”.
Turning to `Cc1ncsc1-c1ccc([C@H](C)NC(=O)[C@@H]2C[C@@H](O)CN2C(=O)[C@@H](c2cc(OCCN3CC(c4cc5cc(-c6ccccc6O)nnc5[nH]4)C3)no2)C(C)C)cc1` [Compound 14, (2S,4R)-4-hydroxy-1-((R)-2-(3-(2-(3-(3-(2-hydroxyphenyl)-7H-pyrrolo[2,3-c]pyridazin-6-yl)azetidin-1-yl)ethoxy)isoxazol-5-yl)-3-methylbutanoyl)-N—((S)-1-(4-(4-methylthiazol-5-yl)phenyl)ethyl)pyrrolidine-2-carboxamide formate], at HiBit-BRM fusion protein, the “BRM HiBit Degradation Maximum (%)” value is on record as “A (“A” indicates maximum degradation ≥ 75%)” and the DC50 is over 10 nM.
Taken in the same sequence, the figures for `Cc1ncsc1-c1ccc([C@H](C)NC(=O)[C@@H]2C[C@@H](O)CN2C(=O)[C@@H](c2cc(OCCN3CC(c4c[nH]c5nnc(-c6ccccc6O)cc45)C3)no2)C(C)C)cc1` [Compound 15, (2S,4R)-4-hydroxy-1-((R)-2-(3-(2-(3-(3-(2-hydroxyphenyl)-7H-pyrrolo[2,3-c]pyridazin-5-yl)azetidin-1-yl)ethoxy)isoxazol-5-yl)-3-methylbutanoyl)-N—((S)-1-(4-(4-methylthiazol-5-yl)phenyl)ethyl)pyrrolidine-2-carboxamide formate] were “A (“A” indicates maximum degradation ≥ 75%)” and over 100 nM.
